Data set [1] relates to SUDHL10. The data set is described as follows: Antiproliferation assay 7, SUDHL10. Type of data set: cell-based. As to conditions: SUDHL10 cells, CellTiter-Glo, read-out: Antiproli SUDHL10 IC50 (median). How it is done:
Assessment of the Anti-Proliferative Effect of Compounds in Different Cell Lines
The impact of compounds on the proliferation of different cell lines was assessed using the CellTiter-Glo® Luminescent Cell Viability reagent from Promega (G7573).
In parallel, cells were plated in a reference (day 0) plate for time zero determination.
Rim wells were excluded. The cells were incubated for 72 hours in a humidified incubator at 37° C. The day 0 plate was measured by adding 30 μL/well of CTG solution (CellTiter-Glo® Luminescent Cell Viability reagent, Promega G7573) to time zero wells in the reference plate followed by a 10 minutes incubation and luminescence reading at 0.1 ms. using the PHERAstar FS microplate reader (BMG Labtech).
After 72 hours incubation, the treated plates were measured in the same way as the day 0 plate mentioned above.

Data set [2] has as its system SUDHL10. Description: Induction of caspase-3/7 activity (Assay 4), SUDHL10. The settings on record: SUDHL10 cells. Format: cell-based. In a few lines:
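Luminescent Caspase-Glo 3/7 read-out after a 3 h, 37 °C compound exposure of the DLBCL line SUDHL10. Values are background-corrected using medium-only wells.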

The test system of data set [3] is SUDHL5. Description: Induction of cytotoxicity (Assay 6), SUDHL5.
In data set [4] the test system is SUDHL5. Description: Antiproliferation assay 7, SUDHL5. As to conditions: SUDHL5 cells, CellTiter-Glo, read-out: Antiproli SUDHL5 IC50 (median). Format: cell-based. The method in brief:
(§1)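 Proliferation was read by CellTiter-Glo luminescence after 72 hours of compound treatment at 37° C. The read was referenced to a parallel plate measured at time zero.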
(In general: Cellular ATP, detected with luciferase, serves as a proxy for viable cell number.)

The test system of data set [5] is SUDHL5. The data set is described as follows: Induction of caspase-3/7 activity (Assay 4), SUDHL5. Type of data set: cell-based. As to conditions: SUDHL5 cells. The method in brief: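 DLBCL cells treated with compounds for 3 hours at 37° C. Caspase-3/7 activity measured by Caspase-Glo 3/7 luminescence, with medium-only background subtracted.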
In the next data set the test system is AMO-1. Description: Antiproliferation assay 7, AMO-1. Format: cell-based. The settings on record: AMO-1 cells, CellTiter-Glo, read-out: Antiproli AMO-1 IC50 median. The method in brief: as §1
A further data set deals with MV-4-11. The data set is described as follows: Antiproliferation assay 7, MV-4-11. The settings on record: Homo sapiens, MV4-11, 72 h, MV-4-11 cells, CellTiter-Glo, read-out: Antiproli MV-4-11 IC50 median. Type of data set: cell-based. In a few lines: as §1
Data set [6] deals with SUDHL10. The data set is described as follows: Induction of cytotoxicity (Assay 6), SUDHL10.
Protocol: Assay 6 Induction of Cytotoxicity Upon Treatment of Cells with Selected Compounds
Therefore, cytotoxicity assays were run in parallel in SUDHL5 and SUDHL10 cells.
The different cell lines were plated in culture medium (RPMI 1640 [GIBCO #22400-089]supplemented with 10% Fetal Bovine Serum) at a density of 3,300 cells in 30 μL/well in a sterile, solid black, flat bottom, polystyrene, TC-treated 384-well microplate (Corning #3571) using Multidrop Combi Reagent Dispenser. As a control, medium without cells was also added to the plate. Cells were incubated in a humidified incubator at 37° C. overnight. […] Rim wells were excluded. The cells were incubated for 5 hours in a humidified incubator at 37° C. After this incubation, 30 μL of CellTiter-Glo® Luminescent Cell Viability reagent (Promega, G7573) was added to each well using the Multidrop Combi Reagent Dispenser, followed by 15 minutes incubation on a shaker at room temperature. Finally, luminescence was read at 0.1 ms, with a gain of 3000 using the PHERAstar FS microplate reader (BMG Labtech).
The next data set has as its system HMC-1-8. Description: Antiproliferation assay 7, HMC-1-8. Format: cell-based. The settings on record: HMC-1-8 cells, CellTiter-Glo, read-out: Antiproli HMC-1-8 IC50 median. In a few lines: as §1
The target in a further data set is MCL-1 (Homo sapiens (Human), UniProt Q07820, K194A/K197A/R201A). The data set is described as follows: Protein-protein interaction assay MCL-1/Noxa BH3 peptide (MCL-1 Assay, TR-FRET). Format: binding. As to conditions: read-out: MCL-1 Assay IC50 (median). As to the method:
The dose-dependent inhibition by the compounds described in this invention of the interaction between MCL-1 and the BH3 domain of Noxa (both human) was determined using a steady state binding competition assay with time-resolved fluorescence energy transfer (TR-FRET) readout. […] The MBP-MCL-1 was purchased from Beryllium (Bedford, Mass., USA). The expression and purification of this protein construct has been described elsewhere (DOI:10.1371/journal.pone.0125010). The Noxa BH3-derived peptide can be obtained from e.g. Biosyntan (Berlin, Germany).
For that, 100-fold concentrated DMSO solutions were prepared by serial dilutions (1:3.4) of a 2 mM stock solution in a clear, 384-well microtiter plate (Greiner Bio-One, Frickenhausen, Germany). From there, 50 nl were transferred in a dark test plate (Greiner Bio-One, Frickenhausen, Germany). […] This was followed by a 10-minute incubation step at 22° C. for pre-equilibration of the putative complex between MBP-MCL-1 and the compounds.
(§2) The mixture was incubated in the dark for one hour at 22° C. and then overnight at 4° C.
(§3) The resulting data (ratio) were normalized, taking 0% inhibition as the mean value of control measurements (usually 32 data points) where all reagents were included. In this case 50 nl DMSO were used instead of compounds. […] IC50 values were determined by regression analysis based on a 4 parameter equation (minimum, maximum, IC50, Hill; Y=Max+(Min−Max)/(1+(X/IC50)^Hill) using the Screener Software (Genedata).

The next data set addresses BCL-2 (Homo sapiens (Human), UniProt P10415). The data set is described as follows: Protein-protein interaction assay BCL-2/Bad BH3 peptide (BCL-2 Assay, TR-FRET). The settings on record: read-out: BCL-2 Assay IC50 (median). Type of data set: binding. As to the method: The dose-dependent inhibition by the compounds described in this invention of the interaction between BCL-2 and the BH3 domain of Bad (both human) was determined using a steady state binding competition assay with time-resolved fluorescence energy transfer (TR-FRET) readout.
For that, 100-fold concentrated DMSO solutions were prepared by serial dilutions (1:3.4) of a 2 mM stock solution in a clear, 384-well microtiter plate (Greiner Bio-One, Frickenhausen, Germany). From there, 50 nl were transferred in a dark test plate (Greiner Bio-One, Frickenhausen, Germany). […] This was followed by a 10-minute incubation step at 22° C. for pre-equilibration of the putative complex between His-BCL-2 and the compounds.
as §2, §3
(In general: Time-resolved FRET reads energy transfer from a long-lived donor to a nearby acceptor.)

Another data set has as its target BCL-XL (Homo sapiens (Human), UniProt Q07817). The data set is described as follows: Protein-protein interaction assay BCL-XL/Bad BH3 peptide (BCL-XL Assay, TR-FRET). Type of data set: binding. As to conditions: read-out: BCL-XL Assay IC50 (median). As to the method: Assay 2 Protein-Protein Interaction Assay: BCL-XL/Bad BH3 Peptide (BCL-XL Assay)
The dose-dependent inhibition by the compounds described in this invention of the interaction between BCL-XL and the BH3 domain of Bad (both human) was determined using a steady state binding competition assay with time-resolved fluorescence energy transfer (TR-FRET) readout.
For that, 100-fold concentrated DMSO solutions were prepared by serial dilutions (1:3.4) of a 2 mM stock solution in a clear, 384-well microtiter plate (Greiner Bio-One, Frickenhausen, Germany). From there, 50 nl were transferred in a dark test plate (Greiner Bio-One, Frickenhausen, Germany). […] This was followed by a 10-minute incubation step at 22° C. for pre-equilibration of the putative complex between His-BCL-XL and the compounds.
The mixture was incubated in the dark for one hour at 22° C. and then overnight at 4° C. The formation of BCL-XL/Bad complexes was determined by measuring the resonance energy transfer of the anti-His- Eu-cryptate antibody to the streptavidin-XL665 present in the reaction.
as §3

Where [7] appears, read: Homo sapiens, SU-DHL10, 3 h, Caspase-Glo 3/7, read-out: Caspase SUDHL10 EC50 (median).
The mark [8] stands for this setting: Homo sapiens, SU-DHL-5, 5 h, read-out: Cytotox SUDHL5 IC50 (median), SUDHL5 cells, 5 hours, CellTiter-Glo.
The mark [9] stands for this setting: Homo sapiens, SU-DHL-5, 3 h, Caspase-Glo 3/7, read-out: Caspase SUDHL5 EC50 (median).
The mark [10] stands for this setting: Homo sapiens, SU-DHL10, 5 h, read-out: Cytotox SUDHL10 IC50 (median), SUDHL10 cells, 5 hours, CellTiter-Glo.
Setting [11] is: 3 hours, Caspase-Glo 3/7, read-out: Caspase SUDHL10 EC50 (median).
The mark [12] stands for this setting: read-out: Cytotox SUDHL5 IC50 (median), SUDHL5 cells, 5 hours, CellTiter-Glo.
The mark [13] stands for this setting: 3 hours, Caspase-Glo 3/7, read-out: Caspase SUDHL5 EC50 (median).
Where [14] appears, read: read-out: Cytotox SUDHL10 IC50 (median), SUDHL10 cells, 5 hours, CellTiter-Glo.

Structures are written as SMILES. Counter-ions that a name gives are not always drawn. Like-named read-outs stand apart in the source and are kept apart here.

Drawing on patent US11447504B2, “Macrocyclic chlorine substituted indole derivatives” (Bayer Aktiengesellschaft, priority 2017, dated 2022), this text covers IC50 and EC50 for 6 molecules.

Sequence of BCL-2 (P10415 other isoform, or with tags, fused parts or gaps): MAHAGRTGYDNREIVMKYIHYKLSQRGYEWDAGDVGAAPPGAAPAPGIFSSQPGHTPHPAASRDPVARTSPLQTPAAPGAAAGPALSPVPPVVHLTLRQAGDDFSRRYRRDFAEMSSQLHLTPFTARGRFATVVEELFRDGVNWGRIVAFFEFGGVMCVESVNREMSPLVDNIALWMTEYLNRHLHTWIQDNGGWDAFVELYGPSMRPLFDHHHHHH
Sequence of BCL-XL (Q07817 other isoform, or with tags, fused parts or gaps): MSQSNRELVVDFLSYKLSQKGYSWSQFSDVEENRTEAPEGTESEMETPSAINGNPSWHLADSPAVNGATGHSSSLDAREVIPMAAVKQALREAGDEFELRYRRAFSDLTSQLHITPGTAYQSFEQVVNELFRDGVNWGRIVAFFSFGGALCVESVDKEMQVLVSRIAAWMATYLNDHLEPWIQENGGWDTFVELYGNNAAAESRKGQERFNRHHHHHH
Sequence of MCL-1 (Q07820 whole entry K194A/K197A/R201A, looked up, the tested form may be a part): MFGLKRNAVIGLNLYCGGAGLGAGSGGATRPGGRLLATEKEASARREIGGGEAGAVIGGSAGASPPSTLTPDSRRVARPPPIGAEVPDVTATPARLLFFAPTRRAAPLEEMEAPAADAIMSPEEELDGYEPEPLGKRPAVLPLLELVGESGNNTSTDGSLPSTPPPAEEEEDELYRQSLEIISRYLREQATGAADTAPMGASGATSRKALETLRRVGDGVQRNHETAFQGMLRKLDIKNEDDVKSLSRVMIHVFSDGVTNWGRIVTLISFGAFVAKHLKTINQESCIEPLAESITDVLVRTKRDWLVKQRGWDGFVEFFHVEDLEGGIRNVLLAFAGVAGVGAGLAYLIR

With `Cc1nn(C)c2c1-c1c(Cl)ccc3c(CCCOc4cccc5ccccc45)c(C(=O)O)n(c13)C/C=C\COC2` (racemic) [Example 1, (rac)-(11Z)-4-chloro-1,3-dimethyl-7-[3-(naphthalen-1-yloxy)propyl]-1,10,13,15-tetrahydropyrazolo[4′,3′:9,10][1,6]oxazacycloundecino[8,7,6-hi]indole-8-carboxylic Acid], the IC50 (as a rule, the concentration that inhibits the measured activity by half) in the data set with SUDHL10 [1] (Homo sapiens, SU-DHL10, 72 h) was 5700 nM; in the data set with SUDHL5 [3] (setting [8]), 2900 nM; with SUDHL5 [4] (Homo sapiens, SU-DHL-5, 72 h) it was 5700 nM. Besides, the EC50 (in general, the concentration giving half of the maximal effect) in the data set with SUDHL10 [2] (setting [7]) came to 5500 nM; in the data set on SUDHL5 [5] (setting [9]), 2900 nM.

For `CCc1c2c(nn1C)CN(C)CCCCn1c(C(=O)O)c(CCCOc3cccc4cc(F)ccc34)c3ccc(Cl)c-2c31` (racemic) [Example 5, (rac)-4-chloro-3-ethyl-7-{3-[(6-fluoronaphthalen-1-yl)oxy]propyl}-2,14-dimethyl-10,11,12,13,14,15-hexahydro-2H-pyrazolo[3′,4′:8,9][1,6]diazacycloundecino[10,11,1-hi]indole-8-carboxylic Acid], the IC50 in the data set on AMO-1 (Homo sapiens, AMO1, 72 h) turned out to be 611 nM; in the data set on SUDHL10 [1] (Homo sapiens, SU-DHL10, 72 h), 280 nM; in the data set on SUDHL5 [3] (setting [8]), 290 nM; in the data set with MV-4-11, 701 nM; with SUDHL5 [4] (Homo sapiens, SU-DHL-5, 72 h), 330 nM; in the data set with SUDHL10 [6] (setting [10]), 530 nM. For the same molecule, the figures for the EC50 with SUDHL10 [2] (setting [7]) and in the data set with SUDHL5 [5] (setting [9]) were 610 nM and 270 nM, respectively.

Consider `Cc1c2c(nn1C)COCCCCn1c(C(=O)O)c(CCCOc3cccc4cc(F)ccc34)c3ccc(Cl)c-2c31` (racemic) [Example 14, (rac)-4-chloro-7-{3-[(6-fluoronaphthalen-1-yl)oxy]propyl}-2,3-dimethyl-2,10,11,12,13,15-hexahydropyrazolo[4′,3′:9,10][1,6]oxazacycloundecino[8,7,6-hi]indole-8-carboxylic Acid], for which the IC50 with AMO-1 (Homo sapiens, AMO1, 72 h) came to 737 nM; with SUDHL10 [1] (Homo sapiens, SU-DHL10, 72 h), 420 nM; with SUDHL5 [3] (setting [8]), 390 nM; in the data set on MV-4-11, 1230 nM; in the data set on SUDHL5 [4] (Homo sapiens, SU-DHL-5, 72 h) it was 510 nM; in the data set on SUDHL10 [6] (setting [10]) it was 610 nM. In addition, the EC50 was 410 nM with SUDHL10 [2] (setting [7]) and 250 nM in the data set on SUDHL5 [5] (setting [9]).

For the molecule `Cc1c2c(nn1C)CN(C)CCCCn1c(C(=O)O)c(CCCOc3cccc4cc(F)ccc34)c3ccc(Cl)c-2c31` (racemic) [Example 30, (rac)-4-chloro-7-{3-[(6-fluoronaphthalen-1-yl)oxy]propyl}-2,3,14-trimethyl-10,11,12,13,14,15-hexahydro-2H-pyrazolo[3′,4′:8,9][1,6]diazacycloundecino[10,11,1-hi]indole-8-carboxylic Acid], the IC50 with AMO-1 (Homo sapiens, AMO1, 72 h) was found to be 415 nM; with SUDHL10 [1] (Homo sapiens, SU-DHL10, 72 h), 150 nM; in the data set with HMC-1-8 (72 h) it was 1560 nM; in the data set with SUDHL5 [3] (setting [8]) it was 210 nM; in the data set on MV-4-11 it was 293 nM; in the data set with SUDHL5 [4] (Homo sapiens, SU-DHL-5, 72 h), 170 nM. Further, the IC50 on MCL-1 stood at 0.92 nM; in the data set on SUDHL10 [6] (setting [10]), 340 nM. Besides, the EC50 was determined as 370 nM in the data set on SUDHL10 [2] (setting [7]) and 180 nM in the data set with SUDHL5 [5] (setting [9]).

Regarding `Cc1nn(C)c2c1-c1c(Cl)ccc3c(CCCOc4cccc5ccccc45)c(C(=O)O)n(c13)CCCCOC2` (single isomer, unassigned; enantiomer 2) [Example 4, 4-chloro-1,3-dimethyl-7-[3-(naphthalen-1-yloxy)propyl]-1,10,11,12,13,15-hexahydropyrazolo[4′,3′:9,10][1,6]oxazacycloundecino[8,7,6-hi]indole-8-carboxylic Acid (Enantiomer 2)], the half-inhibitory concentration (IC50) in the data set on SUDHL10 [1] (72 hours) is 12000 nM; with SUDHL5 [3] (setting [12]), 26000 nM; in the data set with SUDHL5 [4] (72 hours) it was 13000 nM; in the data set with SUDHL10 [6] (setting [14]), above 33000 nM. Moreover, the EC50 was above 33000 nM in the data set with SUDHL10 [2] (setting [11]) and above 28000 nM in the data set with SUDHL5 [5] (setting [13]).

Consider `CCc1c2c(nn1C)N(C)CCCCCn1c(C(=O)O)c(CCCOc3cccc4cc(F)ccc34)c3ccc(Cl)c-2c31` (single isomer, unassigned; enantiomer 2) [Example 79, 4-chloro-3-ethyl-7-{3-[(6-fluoronaphthalen-1-yl)oxy]propyl}-2,15-dimethyl-10,11,12,13,14,15-hexahydro-2H-pyrazolo[4′,3′:4,5][1,6]diazacycloundecino[3,2,1-hi]indole-8-carboxylic acid N-ethylethanamine Salt—Enantiomer 2], for which the IC50 in the data set with AMO-1 (72 hours) was 7400 nM; with HMC-1-8 (72 hours), 14000 nM; in the data set with SUDHL5 [3] (setting [12]), 2200 nM; on BCL-2 it was above 20000 nM; with SUDHL5 [4] (72 hours), 3800 nM; at BCL-XL, above 20000 nM. In the data set on SUDHL10 [6] (setting [14]), the IC50 amounted to 5100 nM. The EC50 in the data set with SUDHL10 [2] (setting [11]) is 5400 nM; in the data set on SUDHL5 [5] (setting [13]), 2800 nM.
